According to patent US20190070163A1, “ANTITUMOR AGENT” (TOCHIGI INSTITUTE OF CLINICAL PATHOLOGY, priority 2013, published 2019):

System: spontaneously developed mammary gland tumors (adenocarcinoma and adenoma)
Test: Therapeutic effect on tumor-bearing rats; light and electron microscopy of removed tumor tissues
Format: in vivo, Sprague-Dawley rats
Settings: for apoptosis of smooth muscle cells in the tumor site: electron micrographs FIGS. 12 to 15; for degeneration of axons of peripheral nerve cells in the tumor site / degeneration of myelin sheaths of peripheral nerve cells in the tumor site: electron micrographs FIGS. 16 to 19; for stage of apoptosis of endothelial cells (irregular condensation and fragmentation of nuclei): staging per Ihara et al. 1998; for apoptosis in the tumor cells / inhibitory effect on the development and the growth of the tumor cells: tumor-bearing rats, oral daily (montelukast sodium 0.16, zafirlukast 1.33, pranlukast hydrate 7.5, zileuton 34.3 mg/kg), vs untreated
Text: Sprague-Dawley rats which had spontaneously developed a tumor during breeding (hereinafter referred to as tumor-bearing rats) were purchased from Charles River Japan, Inc., and used for experiments. Tumors observed were all mammary gland tumors (adenocarcinoma and adenoma). All of these were spontaneous tumors, and the rats were cancer-bearing animals having various conditions of tumorigenesis including carcinogenic factors in mammals including human.
Under ether anesthetization, tumor tissues were removed from tumor-bearing rats. The removed tumors were fixed, and thereafter samples for light microscopy (hematoxylin-eosin staining) and samples for electron microscopy (uranium-lead double staining) were prepared and observed.
To tumor-bearing rats, a leukotriene inhibitor containing montelukast sodium as an active ingredient (leukotriene receptor antagonist; trade name “Singulair Tablets”; manufactured by MSD K. K.) was orally administered for up to 7 days at a daily dose of 0.16 mg/kg body weight in terms of montelukast sodium. On Day 3 and Day 7, tumor tissues were removed under ether anesthetization. In the same manner as in Comparative Example 1, the removed tumors were fixed, and thereafter samples for light microscopy (hematoxylin-eosin staining) and samples for electron microscopy (uranium-lead double staining) were prepared and observed.
To tumor-bearing rats, a leukotriene inhibitor containing zafirlukast as an active ingredient (leukotriene receptor antagonist; trade name “Accolate”; manufactured by AstraZeneca K. K.) was orally administered for up to 7 days at a daily dose of 1.33 mg/kg body weight in terms of zafirlukast. On Day 3 and Day 7, tumor tissues were removed under ether anesthetization. In the same manner as in Comparative Example 1, the removed tumors were fixed, and thereafter samples for light microscopy (hematoxylin-eosin staining) and samples for electron microscopy (uranium-lead double staining) were prepared and observed.
To tumor-bearing rats, a leukotriene inhibitor containing pranlukast hydrate as an active ingredient (leukotriene receptor antagonist; trade name “Onon”; manufactured by Ono Pharmaceutical Co., Ltd.) was orally administered for up to 7 days at a daily dose of 7.5 mg/kg body weight in terms of pranlukast hydrate. On Day 3 and Day 7, tumor tissues were removed under ether anesthetization. In the same manner as in Comparative Example 1, the removed tumors were fixed, and thereafter samples for light microscopy (hematoxylin-eosin staining) and samples for electron microscopy (uranium-lead double staining) were prepared and observed.
To tumor-bearing rats, a leukotriene inhibitor containing zileuton as an active ingredient (leukotriene biosynthesis inhibitor; trade name “ZYFLO”; manufactured by Abbott Laboratories) was orally administered for up to 7 days at a daily dose of 34.3 mg/kg body weight in terms of zileuton. On Day 3 and Day 7, tumor tissues were removed under ether anesthetization. In the same manner as in Comparative Example 1, the removed tumors were fixed, and thereafter samples for light microscopy (hematoxylin-eosin staining) and samples for electron microscopy (uranium-lead double staining) were prepared and observed.

[1] = oral, dosing period 3 days, electron micrographs

Compound | effect to inhibit stromal hyperplasia (oral, dosing period 3 days) | apoptosis of smooth muscle cells in the tumor site (oral, dosing period 3 days) | degeneration of axons of peripheral nerve cells in the tumor site (oral, dosing period 3 days) | degeneration of myelin sheaths of peripheral nerve cells in the tumor site (oral, dosing period 3 days) | stage of apoptosis of endothelial cells (irregular condensation and fragmentation of nuclei) [1] | apoptosis in the tumor cells | inhibitory effect on the development and the growth of the tumor cells | apoptosis of fibroblasts in tumor tissue [1]
CC(c1cc2ccccc2s1)N(O)C(N)=O (centres unmarked) [zileuton] | an effect to inhibit stromal hyperplasia was also seen | apoptosis of a smooth muscle cell | vacuolation and degeneration of an axon | degeneration of a myelin sheath | Stage II to III | apoptosis was already induced on as early as Day 3 | remarkable inhibitory effect | –
COc1cc(C(=O)NS(=O)(=O)c2ccccc2C)ccc1Cc1cn(C)c2ccc(NC(=O)OC3CCCC3)cc12 [zafirlukast] | – | apoptosis of a smooth muscle cell | vacuolation and degeneration of an axon | degeneration of a myelin sheath | Stage II to III | apoptosis was already induced on as early as Day 3 | remarkable inhibitory effect | apoptosis of fibroblast
